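Following 48 hours of exposure in 96-well plates, responses at five concentrations were used to interpolate endpoints linearly. GI50 marks 50% less growth.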 Activity calls are given as the source filed them. Cut-off read from the data, not from the text of the source: active = GI50 up to about 1.1 µM and inactive = higher.
Tests used:
Experiment in all cases: DTP human tumour cell line panel, 48 h
SNB-75 = test system: SNB-75
MDA-N = test system: MDA-N
MOLT-4 = test system: MOLT-4
SN12C = test system: SN12C
LOX IMVI = test system: LOX IMVI
COLO 205 = test system: COLO 205
HCT-15 = test system: HCT-15
786-0 = test system: 786-0
TK-10 = test system: TK-10
CCRF-CEM = test system: CCRF-CEM
HOP-92 = test system: HOP-92
NCI/ADR-RES = test system: NCI/ADR-RES
SF-295 = test system: SF-295
OVCAR-5 = test system: OVCAR-5
KM12 = test system: KM12
Hs-578T = test system: Hs-578T
IGROV-1 = test system: IGROV-1
SNB-19 = test system: SNB-19
RXF 393 = test system: RXF 393
SR = test system: SR

SMILES	GI50 (SNB-75)	GI50 (MDA-N)	GI50 (MOLT-4)	GI50 (SN12C)	GI50 (LOX IMVI)	GI50 (COLO 205)	GI50 (HCT-15)	GI50 (786-0)	GI50 (TK-10)	GI50 (CCRF-CEM)	GI50 (HOP-92)	GI50 (NCI/ADR-RES)	GI50 (SF-295)	GI50 (OVCAR-5)	GI50 (KM12)	GI50 (Hs-578T)	GI50 (IGROV-1)	GI50 (SNB-19)	GI50 (RXF 393)	GI50 (SR)
CCCCCC/C=C/C#CCCCCCCCC(=O)O	> 100 µM (inactive)	> 100 µM (inactive)	78.2 µM (inactive)	> 100 µM (inactive)	> 100 µM (inactive)	> 100 µM (inactive)	> 100 µM	> 100 µM (inactive)	> 100 µM (inactive)	82.4 µM (inactive)	> 100 µM (inactive)	> 100 µM (inactive)	> 100 µM (inactive)	> 100 µM (inactive)	> 100 µM (inactive)	> 100 µM (inactive)	> 100 µM (inactive)	> 100 µM (inactive)		
COc1c(-c2nc3ccc(N4CCN(C)CC4)nc3[nH]2)cc(OC)c2c1nc(CO)n2C	31.1 µM (inactive)	> 100 µM (inactive)	> 100 µM (inactive)	> 100 µM (inactive)	> 100 µM (inactive)	75.7 µM (inactive)	> 100 µM	> 100 µM (inactive)		> 100 µM (inactive)	> 100 µM (inactive)	> 100 µM (inactive)	> 100 µM (inactive)	> 100 µM (inactive)	> 100 µM (inactive)	> 100 µM (inactive)	> 100 µM (inactive)	> 100 µM (inactive)	> 100 µM (inactive)	
Cc1cn(CCCC2=NCCCN2)c(=O)[nH]c1=O	> 100 µM (inactive)	> 100 µM (inactive)	> 100 µM (inactive)	> 100 µM (inactive)	> 100 µM (inactive)	> 100 µM (inactive)	> 100 µM	> 100 µM (inactive)	> 100 µM (inactive)	> 100 µM (inactive)	> 100 µM (inactive)	> 100 µM (inactive)	> 100 µM (inactive)	> 100 µM (inactive)	> 100 µM (inactive)	> 100 µM (inactive)	> 100 µM (inactive)	> 100 µM (inactive)	> 100 µM (inactive)	
CC(=O)Nc1ccc(C(=O)NN2C(=O)C(Cl)C2c2cc(Br)ccc2O)cc1 (stereo not drawn)	44.4 µM (inactive)	9.16 µM (inactive)	3.37 µM (inactive)	8.71 µM (inactive)		36.1 µM (inactive)	2.14 µM	3.54 µM (inactive)	36.1 µM (inactive)	1.85 µM (inactive)	15.2 µM (inactive)	3.65 µM (inactive)	3.66 µM (inactive)	19.2 µM (inactive)	3.44 µM (inactive)	66.1 µM (inactive)	17.6 µM (inactive)	7.62 µM (inactive)		3.45 µM (inactive)
